Results from article PMC5078989, “Targeted inhibition of the COP9 signalosome for treatment of cancer” (Nature Communications, 2016).

Biological target: T1, human MMP14 (Homo sapiens, UniProt P50281)
T1 construct: human MMP14 (Uniprot P50281), amino acids 112–284; made in house; host or cells: E. coli
Test: Selectivity assay MMP14
Assay type: biochemical
Description: All biochemical assays were performed at room temperature in 384-well plates in a total volume of 25.25 μl per well. Test compounds were dissolved in 90% (v/v) DMSO/water. For the assays, 250 nl of compound solution was added per well, followed by addition of 12.5 μl protease solution. After 70 min of pre-incubation at room temperature, the reactions were started by addition of 12.5 μl substrate solution and followed either by measuring fluorescence intensity (rhodamine 110-based substrates) or by fluorescence lifetime (PT14-based substrates). The effect of compound on enzymatic activity was obtained from the linear part of the progress curves and determined after 1 h (t=60 min). The final compound concentrations ranged from 100 μM to 1 nM.
Matrix metalloproteinases. Human MMP1 (Uniprot P03956), amino acids 1–469, expressed in and purified from stable transfected C127 cells; human MMP2 (Uniprot P08253), amino acids 1–660, expressed in and purified from insect cells (baculovirus expression system); human MMP8 (Uniprot P22894), amino acids 100–262, expressed in and purified from E. coli; human MMP9 (Uniprot P14780), amino acids 1–707, expressed in and purified from stable transfected 293 cells; human MMP12 (Uniprot P39900), amino acids 101–268, expressed in and purified from E. coli; human MMP13 (Uniprot P45452), amino acids 103–274, expressed in and purified from E. coli; human MMP14 (Uniprot P50281), amino acids 112–284, expressed in and purified from E. coli; human ADAM17 (Uniprot P78536), amino acids 1–670, expressed in and purified from insect cells (baculovirus expression system); substrate: Ac-C(PT14)-[…]-NH2 purchased from Biosyntan (product number 8069); enzyme concentrations: 3 nM (MMP1), 1 nM (MMP2), 3 nM (MMP8), 0.1 nM (MMP9), 0.5 nM (MMP12), 0.13 nM (MMP13), 0.005 nM (MMP14), 30 nM (ADAM17); substrate concentration: 0.8 μM; assay buffer: 100 mM Tris, pH 7.4, 100 mM NaCl, 10 mM CaCl2, 10 μM ZnCl2, 0.075% (v/v) Brij35.

Row | Structure (SMILES) | IC50
1 | COCc1ccccc1NCc1ccc([C@H]2[C@@H](O)CCCc3cncn32)c(-c2ccccc2Cl)c1 [CSN5i-2, (5S,6S)-5-(2′-chloro-5-(((2-(methoxymethyl)phenyl)amino)methyl)-[1,1′-biphenyl]-2-yl)-6,7,8,9-tetrahydro-5H-imidazo[1,5-a]azepin-6-ol] | 15.4 ± 0.02 µM
2 | COCc1ccccc1NCc1ccc([C@@H]2[C@H](O)CCCc3cncn32)c(-c2ccccc2Cl)c1 [CSN5i-2e, (5R,6R)-5-(2′-chloro-5-(((2-(methoxymethyl)phenyl)amino)methyl)-[1,1′-biphenyl]-2-yl)-6,7,8,9-tetrahydro-5H-imidazo[1,5-a]azepin-6-ol] | 11 ± 1 µM
3 | CC(C)n1nc(C(F)F)cc1C(=O)Nc1ccc([C@H]2[C@@H](O)CCCc3cncn32)c(-c2ccccc2)c1 [CSN5i-3, 3-(Difluoromethyl)-N-(6-((5S,6S)-6-hydroxy-6,7,8,9-tetrahydro-5H-imidazo[1,5-a]azepin-5-yl)-[1,1′-biphenyl]-3-yl)-1-isopropyl-1H-pyrazole-5-carboxamide] | 4.6 ± 0.5 µM
